Tests used:
Format in all cases: cell-based, human
MMP-3 [1] = assay: MMP-3 expression (ELISA of culture supernatant) in 2D cultured SW-1353 cells stimulated with IL-β; settings: 2D SW-1353, 10 mM of inhibitor together with 0, 10, 100 and 1000 μg/ml DNA fragment mixture, IL-β 10 ng/ml
Method: (§1) The human chondrosarcoma cell line SW-1353 (HTB-94, ATCC, Mansassas, Va., USA) was cultured in DMEM (Dulbecco Modified Eagle's medium) supplemented with 10% FBS (fetal bovine serum) and 1% antibiotic-antifungal agent. An incubator for cell culture was kept at 37° C. under 5% CO2. For cell culture, cells were seeded into a culture flask at a density of 1.2×10^4 cells/cm^2. When a confluence of 80-90% was reached, the cells were trypsinized. The cells were subcultured 9 times before use in the experiment.
(§2) SW-1353 cells were treated with 10-1000 μg/ml of the DNA fragment mixture and 0.1-10 mM of each of glucosamine (GLN), N-acetyl-D-glucosamine (NAG), alliin, sodium butyrate (SB) and chondroitin sulfate (CS) for 24 hours, and stimulated with 10 ng/ml of IL-β for analysis of MMP expression therein.
(§3) To evaluate MMP expression, IL-β was dissolved in serum-free DMEM medium and used at a final concentration of 10 ng/ml. The cells were cultured at 37° C. under 5% CO2. The cell culture supernatant was collected, centrifuged, and then stored at −80° C. until use in the experiment. The amounts of MMP-3 and MMP-13 in the culture supernatant were measured using commercially available ELISA (enzyme-linked immunosorbent assays) according to the manufacturer's protocol.
(§4) Cells of test groups were cultured with 10 ng/ml of IL-β under the same conditions as those of the control group.

MMP-13 [2] = assay: MMP-13 expression (ELISA of culture supernatant) in 2D cultured SW-1353 cells stimulated with IL-β; settings: 2D SW-1353, 10 mM of inhibitor together with 0, 10, 100 and 1000 μl/ml DNA fragment mixture, IL-β 10 ng/ml
Method: as §1, §2, §3, §4

MMP-3 [3] = assay: MMP-3 expression (ELISA) in 3D cultured SW-1353 cells stimulated with IL-β; settings: 3D SW-1353, 10 mM of inhibitor together with 0, 10, 100 and 1000 μg/ml DNA fragment mixture, IL-β 10 ng/ml
Method: (§5) SW-1353 cells were grown on a 3D collagen […] with or without a DNA fragment mixture (polydeoxyribonucleotides (PDRN), 450 kDa, sterilized, BR Pharm Co, Wonju, South Korea). SW-1353 cells were harvested from the 2D culture, and the cells in the medium were counted. Next, the cells were spun down and cooled. For use of the DNA fragment mixture as an extracellular matrix (ECM) additive to 3D chondrocytes, 10 mg/ml of the DNA fragment mixture was dissolved in 10× PBS and diluted with 10× PBS at concentrations of 0 μg/ml, 10 μg/ml, 100 μg/ml and 1000 μg/ml. 10× PBS, containing different concentrations of the DNA fragment mixture, and rat tail collagen I solution diluted with DMEM at a concentration of 4 mg/ml, were mixed at a ratio of 1:10, and the mixture was adjusted to a pH of 7.0-7.4 with NaOH. Thereafter, the cells were carefully shaken to avoid air bubbles from entering the collagen solution. 2 μl of the solution was added to each well to construct a 3D gel-cell. The gel was kept in an incubator (37° C. and 5% CO2) for 45 minutes, and the 3D gel-cell matrix was exposed to serum-free medium for 48 hours. For drug screening from the DNA fragment mixture, the DNA fragment mixture was treated with serum-free medium after the SW-1353 cells were sufficiently grown.
as §2, §3
(§6) During 3D cell culture, chondrocytes were cultured in 10% serum-containing medium or serum-free medium, and the cultured chondrocytes were stimulated with IL-β (10 ng/ml).
(§7) In addition, after 24 hours of treatment with the DNA fragment mixture and IL-β in serum-free medium, two markers (MMP-3 and MMP-13) which are frequently involved in degenerative arthritis disease were analyzed.

MMP-13 [4] = assay: MMP-13 expression (ELISA) in 3D cultured SW-1353 cells stimulated with IL-β; settings: 3D SW-1353, 10 mM of inhibitor together with 0, 10, 100 and 1000 μl/ml DNA fragment mixture, IL-β 10 ng/ml
Method: as §5, §2, §3, §6, §7

CC(=O)N[C@H]1C(O)O[C@H](CO)[C@@H](O)[C@@H]1O (stereo partly drawn) [N-acetyl-D-glucosamine]
decreased: expression level of MMP-3 protein (MMP-3 [1]) | expression level of MMP-13 protein (MMP-13 [2]) | expression level of MMP-3 protein (MMP-3 [3]) | expression level of MMP-13 protein (MMP-13 [4])

N[C@H]1C(O)O[C@H](CO)[C@@H](O)[C@@H]1O (some centres unmarked) [glucosamine]
decreased: expression level of MMP-3 protein (MMP-3 [1]) | expression level of MMP-13 protein (MMP-13 [2]) | expression level of MMP-3 protein (MMP-3 [3]) | expression level of MMP-13 protein (MMP-13 [4])

CCCC(=O)[O-].[Na+] [sodium butyrate]
decreased: expression level of MMP-3 protein (MMP-3 [1]) | expression level of MMP-13 protein (MMP-13 [2]) | expression level of MMP-3 protein (MMP-3 [3]) | expression level of MMP-13 protein (MMP-13 [4])

alliin
decreased: expression level of MMP-3 protein (MMP-3 [1]) | expression level of MMP-13 protein (MMP-13 [2]) | expression level of MMP-3 protein (MMP-3 [3]) | expression level of MMP-13 protein (MMP-13 [4])

chondroitin sulfate
decreased: expression level of MMP-3 protein (MMP-3 [1]) | expression level of MMP-13 protein (MMP-13 [2]) | expression level of MMP-3 protein (MMP-3 [3]) | expression level of MMP-13 protein (MMP-13 [4])

— patent publication US20190374566A1, “COMPOSITION FOR PREVENTING AND TREATING ARTHRITIS, INCLUDING DNA FRAGMENT MIXTURE AND MATRIX METALLOPROTEINASE PRODUCTION INHIBITOR” (BR PHARM CO., LTD., priority 2018, published 2019)
